Patent publication US8268881B2, “Carboxamide derivatives as muscarinic receptor antagonists” (Pfizer Limited, priority 2005, dated 2012)

The compounds below were run against T1, human muscarinic M3 receptor (Homo sapiens, UniProt P20309) (assay: hM3 β-Lac potency assay (cell based β-lactamase)). Conditions: CHO cells expressing human M3 receptor, NFAT β-lactamase reporter; […]; IC50 converted to Ki by Cheng-Prusoff; read-out: Cell based β-lactamase M3 Ki.
T1 construct: expressed in transfected cells
Protocol: M3 potency was determined in CHO-K1 cells transfected with the NFAT-Betalactamase gene. CHO (Chinese Hamster Ovary) cells recombinantly expressing the human muscarinic M3 receptor were transfected with the NFAT_β-Lac_Zeo plasmid.
The cells were re-suspended at 2×10^5 cells/ml in growth medium (composition as described above). […] Inhibition curves were plotted and IC50 values generated using a 4-parameter sigmoid fit and converted to Ki values using the Cheng-Prusoff correction and the KD value for carbamyl choline in the assay.

T1 sequence (P20309 whole entry): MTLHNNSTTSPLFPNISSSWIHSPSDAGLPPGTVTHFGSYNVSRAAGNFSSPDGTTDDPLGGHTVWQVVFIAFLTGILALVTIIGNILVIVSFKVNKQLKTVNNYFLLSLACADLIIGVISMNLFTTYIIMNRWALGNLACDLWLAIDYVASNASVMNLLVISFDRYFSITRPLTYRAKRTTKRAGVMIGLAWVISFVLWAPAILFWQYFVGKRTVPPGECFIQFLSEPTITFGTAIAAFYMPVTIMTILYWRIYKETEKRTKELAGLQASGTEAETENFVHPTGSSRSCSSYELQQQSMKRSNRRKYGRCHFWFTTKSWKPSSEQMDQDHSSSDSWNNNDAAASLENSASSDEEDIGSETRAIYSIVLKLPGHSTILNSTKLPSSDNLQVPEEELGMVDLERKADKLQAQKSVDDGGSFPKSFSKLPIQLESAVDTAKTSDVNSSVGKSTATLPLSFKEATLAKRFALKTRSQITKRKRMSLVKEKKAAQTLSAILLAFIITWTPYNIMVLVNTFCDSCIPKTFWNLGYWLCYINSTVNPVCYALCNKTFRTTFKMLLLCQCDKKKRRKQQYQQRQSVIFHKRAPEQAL

SMILES | Ki [nM]
CC(C)(CCC(C#N)(c1ccccc1)c1ccccc1)N1CCC(OCc2cccc(O)c2)CC1 [Example 88, 5-{4-[(3-Hydroxybenzyl)oxy]piperidin-1-yl}-5-methyl-2,2-diphenylhexanenitrile] | 71.9

Same assay, conditions: CHO cells expressing human M3 receptor, NFAT β-lactamase reporter; inhibition of 80 nM carbamyl choline signal, 4 h; IC50 converted to Ki by Cheng-Prusoff; read-out: Cell based β-lactamase M3 Ki

SMILES | Ki [nM]
CC(C)(CCC(C(N)=O)(c1ccccc1)c1ccccc1)N1CC[C@H](Oc2cccc(O)c2F)C1 [Example 53, 5-[(3S)-3-(2-Fluoro-3-Hydroxy-phenoxy)-pyrrolidin-1-yl]-5-methyl-2,2-diphenyl-hexanoic acid amide] | 0.334
CC(C)(CCC(C(N)=O)(c1ccccc1)c1ccccc1)N1CC[C@@H](OCc2cccc(O)c2)C1 [Example 54, 5-[(3R)-3-(3-Hydroxy-benzyloxy)-pyrrolidin-1-yl]-5-methyl-2,2-diphenyl-hexanoic acid amide] | 3.62
CC(C)(CCC(C#N)(c1ccccc1)c1ccccc1)N1CC[C@H](OCc2cccc(-c3ccccc3O)c2)C1 [Example 58, 5-{(3S)-3-[(2′-Hydroxybiphenyl-3-yl)methoxy]pyrrolidin-1-yl}-5-methyl-2,2-diphenylhexanenitrile] | 1580
CC(C)(CCC(C(N)=O)(c1ccccc1)c1ccccc1)N1CC[C@H](OCc2cccc(-c3cccc(O)c3)c2)C1 [Example 61, 5-{(3S)-3-[(3′-Hydroxybiphenyl-3-yl)methoxy]pyrrolidin-1-yl}-5-methyl-2,2-diphenylhexanamide] | 9.85
CC(C)(CCC(C#N)(c1ccccc1)c1ccccc1)N1CC[C@H](OCc2cccc(-c3ccc(O)cc3)c2)C1 [Example 62, 5-[(3S)-3-[(4′-Hydroxybiphenyl-3-yl)methoxy]-pyrrolidin-1-yl]5-methyl-2,2-diphenylhexanenitrile] | 57.4
CC(C)(CCC(C(N)=O)(c1ccccc1)c1ccccc1)N1CC[C@H](OCc2cccc(-c3ccc(O)cc3)c2)C1 [Example 63, 5-{(3S)-3-[(4′-Hydroxybiphenyl-3-yl)methoxy]pyrrolidin-1-yl}-5-methyl-2,2-diphenylhexanamide] | 28.7
CC(C)(CCC(C(N)=O)(c1ccccc1)c1ccccc1)N1CC[C@H](OCc2cccc(-c3ccccc3O)c2)C1 [Example 64, 5-{(3S)-3-[(2′-Hydroxybiphenyl-3-yl)methoxy]pyrrolidin-1-yl}-5-methyl-2,2-diphenylhexanamide] | 65.6
CC(C)(CCC(C(N)=O)(c1ccccc1)c1ccccc1)N1CC[C@H](OCc2ccc(-c3cccc(O)c3)cc2)C1 [Example 65, 5-[(3S)-3-[(3′-Hydroxybiphenyl-4-yl)methoxy]pyrrolidin-1-yl]5-methyl-2,2-diphenylhexanamide] | 62.7
CC(C)(CCC(C(N)=O)(c1ccccc1)c1ccccc1)N1CC[C@H](OCc2cccc(-c3ccccc3)c2)C1 [Example 66, 5-[(3S)-3-(Biphenyl-3-ylmethoxy)pyrrolidin-1-yl]-5-methyl-2,2-diphenylhexanamide] | 45.4
CC(C)(CCC(C(N)=O)(c1ccccc1)c1ccccc1)N1CC[C@@H](OCc2ccc(F)c(O)c2)C1 [Example 67, 5-[(3R)-3-(4-Fluoro-3-hydroxy-benzyloxy)-pyrrolidin-1-yl]-5-methyl-2,2-diphenylhexanamide] | 10.7
CC(C)(CCC(C(N)=O)(c1ccccc1)c1ccccc1)N1CC[C@H](Oc2cc(O)cc(C#N)c2)C1 [Example 68, 5-[(3S)-3-(3-Cyano-5-hydroxy-phenoxy)-pyrrolidin-1-yl]-5-methyl-2,2-diphenylhexanamide] | 9.88
COc1ccc(C#N)c(O[C@H]2CCN(C(C)(C)CCC(C(N)=O)(c3ccccc3)c3ccccc3)C2)c1 [Example 69, 5-[(3S)-3-(2-Cyano-5-methoxy-phenoxy)-pyrrolidin-1-yl]-5-methyl-2,2-diphenylhexanamide] | 111
CC(C)(CCC(C(N)=O)(c1ccccc1)c1ccccc1)N1CC[C@H](Oc2ccc3ccc(O)cc3c2)C1 [Example 70, 5-[(3S)-3-[(7-Hydroxy-2-naphthyl)oxy]pyrrolidin-1-yl]-5-methyl-2,2-diphenylhexanamide] | 19.1
CC(C)(CCC(C(N)=O)(c1ccccc1)c1ccccc1)N1CC[C@H](Oc2ccc(-c3ccccc3)cc2)C1 [Example 71, 5-[(3S)-3-(4-Phenylphenoxy)pyrrolidin-1-yl]-5-methyl-2,2-diphenylhexanamide] | 113
CC(C)(CCC(C(N)=O)(c1ccccc1)c1ccccc1)N1CC[C@@H](Oc2ccc(O)c(Cl)c2)C1 [Example 72, 5-[(3R)-3-(3-chloro-4-hydroxyphenoxy)pyrrolidin-1-yl]-5-methyl-2,2-diphenylhexanamide] | 1.23
COc1cc(F)cc(O[C@@H]2CCN(C(C)(C)CCC(C(N)=O)(c3ccccc3)c3ccccc3)C2)c1 [Example 73, 5-[(3R)-3-(3-Fluoro-5-methoxy-phenoxy)-pyrrolidin-1-yl]-5-methyl-2,2-diphenylhexanamide] | 0.852
CC(C)(CCC(C(N)=O)(c1ccccc1)c1ccccc1)N1CC[C@@H](Oc2cc(O)cc(F)c2)C1 [Example 74, 5-[(3R)-3-(3-Fluoro-5-hydroxy-phenoxy)-pyrrolidin-1-yl]-5-methyl-2,2-diphenyl-hexanamide] | < 0.56
CC(C)(CCC(C(N)=O)(c1ccccc1)c1ccccc1)N1CC[C@@H](Oc2cccc(O)c2F)C1 [Example 76, 5-[(3R)-3-(2-Fluoro-3-hydroxy-phenoxy)-pyrrolidin-1-yl]-5-methyl-2,2-diphenylhexanamide] | 0.582

SMILES | Ki [nM]
COc1cccc(O[C@@H]2CCN(C(C)(C)CCC(C(N)=O)(c3ccccc3)c3ccccc3)C2)c1Cl [Example 77, 5-[(3R)-3-(2-Chloro-3-methoxy-phenoxy)-pyrrolidin-1-yl]-5-methyl-2,2-diphenylhexanamide] | 4.96
CC(C)(CCC(C(N)=O)(c1ccccc1)c1ccccc1)N1CC[C@@H](Oc2cccc(O)c2Cl)C1 [Example 78, 5-[(3R)-3-(2-Chloro-3-hydroxy-phenoxy)-pyrrolidin-1-yl]-5-methyl-2,2-diphenylhexanamide] | 0.917
CC(C)(CCC(C(N)=O)(c1ccccc1)c1ccccc1)N1CC[C@@H](OCc2ccc(Cl)c(O)c2)C1 [Example 79, 5-[(3R)-3-(4-Chloro-3-hydroxy-benzyloxy)-pyrrolidin-1-yl]-5-methyl-2,2-diphenyl hexanamide] | 16.2
COc1cc(O[C@@H]2CCN(C(C)(C)CCC(C(N)=O)(c3ccccc3)c3ccccc3)C2)ccc1Cl [Example 81, 5-[(3R)-3-(3-methoxy-4-chloro-Phenoxy)-pyrrolidin-1-yl]-5-methyl-2,2-diphenylhexanamide] | 35.4
CC(C)(CCC(C(N)=O)(c1ccccc1)c1ccccc1)N1CC[C@@H](Oc2ccc(Cl)c(O)c2)C1 [Example 82, 5-[(3R)-3-(3-hydroxy-4-chloro-phenoxy)-pyrrolidin-1-yl]-5-methyl-2,2-diphenylhexanamide] | 7.96
CC(C)(CCC(C(N)=O)(c1ccccc1)c1ccccc1)N1CC[C@@H](Oc2ccc(C#N)c(O)c2)C1 [Example 83, 5-[(3R)-3-(3-hydroxy-4-cyano-phenoxy)-pyrrolidin-1-yl]-5-methyl-2,2-diphenylhexanamide] | 30
COc1cccc(CO[C@H]2CCN(C(C)(C)CCC(C(N)=O)(c3ccccc3)c3ccccc3)C2)c1 [Example 84, 5-[(3S)-3-(3-methoxy-benzyloxy)pyrrolidin-1-yl]-5-methyl-2,2-diphenylhexanamide] | 6.97
CC(C)(CCC(C(N)=O)(c1ccccc1)c1ccccc1)N1CC[C@@H](OCc2cccc(O)c2Cl)C1 [Example 85, 5-[(3R)-3-(2-Chloro-3-hydroxy-benzyloxy)-pyrrolidin-1-yl]-5-methyl-2,2-diphenylhexanamide] | 3.19
CC(C)(CCC(C#N)(c1ccccc1)c1ccccc1)N1CCC(Oc2ccccc2)CC1 [Example 86, 5-Methyl-5-(4-phenoxypiperidin-1-yl)-2,2-diphenylhexanenitrile] | 1.26
CC(C)(CCC(C#N)(c1ccccc1)c1ccccc1)N1CCC(OCc2ccccc2)CC1 [Example 89, 5-[4-(Benzyloxy)piperidin-1-yl]-5-methyl-2,2-diphenylhexanenitrile] | 159
CC(C)(CCC(C(N)=O)(c1ccccc1)c1ccccc1)N1CCC(Oc2ccccc2)CC1 [Example 90, 5-Methyl-5-(4-Phenoxypiperidin-1-yl)-2,2-diphenylhexanamide] | 0.268
CC(C)(CCC(C(N)=O)(c1ccccc1)c1ccccc1)N1CCC(OCc2cccc(Br)c2)CC1 [Example 91, 5-{4-[(3-Bromobenzyl)oxy]piperidin-1-yl}-5-methyl-2,2-diphenylhexanamide] | 22.6
CC(C)(CCC(C(N)=O)(c1ccccc1)c1ccccc1)N1CCC(OCc2ccccc2)CC1 [Example 92, 5-[4-(Benzyloxy)piperidin-1-yl]-5-methyl-2,2-diphenylhexanamide] | 2.13
CC(C)(CCC(C(N)=O)(c1ccccc1)c1ccccc1)N1CCC(Oc2cc(O)c(Cl)cc2Cl)CC1 [Example 93, 5-[4-(2,4-Dichloro-5-hydroxy-phenoxy)-piperidin-1-yl]-5-methyl-2,2-diphenylhexanoic acid amide] | 26.8
CC(C)(CCC(C(N)=O)(c1ccccc1)c1ccccc1)N1CCC(Oc2cc(F)c(C#N)cc2F)CC1 [Example 94, 5-[4-(4-Cyano-2,5-difluoro-phenoxy)-piperidin-1-yl]-5-methyl-2,2-diphenylhexanoic acid amide] | 12.4
Cc1c(O)cccc1OC1CCN(C(C)(C)CCC(C(N)=O)(c2ccccc2)c2ccccc2)CC1 [Example 96, 5-[4-(3-hydroxy-2-methylphenoxy)piperidin-1-yl]-5-methyl-2,2-diphenylhexanamide] | 6.51
CC(C)(CCC(C(N)=O)(c1ccccc1)c1ccccc1)N1CCC(OCc2cccc(-c3cccc(O)c3)c2)CC1 [Example 98, 5-{4-[(3′-hydroxybiphenyl-3-yl)methoxy]piperidin-1-yl}-5-methyl-2,2-diphenylhexanamide] | 139
